The results in this text go back to patent US6335356B1, “Method of treating a patient by parenteral administration of a lipophilic compound” (Sugen, Inc., priority 1994, dated 2002).

Values after ≈ are worked out from the molar mass of the structure shown.

A short description of data set [1]: Ability of leflunomide solutions to be diluted with aqueous solutions. Conditions: for Solubility: organic solvent or mixture, read-out: concentration soluble and allowing dilution with aqueous solutions. The class given is physicochemical. The method, then:
(§1) Leflunomide has a low solubility in standard formulations used to dissolve compounds for parenteral administration. For example, the solubility of leflunomide in VPD (126 mg alcohol, 40 mg POLYSORBATE 80®, 3 mg citric acid, 15 mg benzyl alcohol, and 325 mg PEG MW300; also referred to as PBTE) is about 60 mg/ml. Parenterally administered VPD formulations should be diluted at least 1:2 with a pharmaceutically acceptable aqueous solution to avoid toxic effects. Such dilution can result in precipitation of lipophilic compounds. For leflunomide, a concentration in VPD greater than about 5 mg/ml precipitates when diluted 1:2 with a pharmaceutically aqueous solution such as WFI. Leflunomide was solubilized in varying ratios of POLYSORBATE 80® and alcohol. The leflunomide solutions were then tested for the ability to dilute with aqueous solutions.

The format of data set [2] is physicochemical. From the text:
The pH of the formulations can be adjusted with a pharmaceutically acceptable excipient. For example, the apparent pH of the POLYSORBATE 80®:alcohol formulations can be adjusted with citric acid.

Data set [3] in a line: Physical stability (precipitation) of leflunomide solutions over time. The class given is physicochemical.
A short description of data set [4]: Solubility of leflunomide in vehicles (POLYSORBATE 80:alcohol ratios, alcohol, VPD/PBTE). The data set is classed as physicochemical. The method, then: as §1, with “WFI.” for “WFI. Leflunomide was solubilized in varying ratios of POLYSORBATE 80® and alcohol. The leflunomide solutions were then tested for the ability to dilute with aqueous solutions.”
Increasing the solubility of leflunomide allows more leflunomide to be administered to a patient via parenteral administration. The formulations described by the present invention can use alcohol and a surfactant to solubilize leflunomide. Leflunomide is soluble in alcohol at 100 mg/ml. The surfactant is added to allow for the dilution into a pharmaceutically acceptable aqueous solution prior to injection.
Leflunomide was solubilized in varying ratios of POLYSORBATE 80® and alcohol. The leflunomide solutions were then tested for the ability to dilute with aqueous solutions.
As noted above, the stability of leflunomide in solution is pH dependent. To stabilize leflunomide varying amounts of citric acid (1 to 20 mg/ml) were added to both 33%T:66%E and 66%T:33%E. The citric acid decreased the apparent pH of the solutions.

For `Cc1oncc1C(=O)Nc1ccc(C(F)(F)F)cc1` [Leflunomide, 5-methylisoxazole-4 carboxylic acid-(4-trifluromethyl)-anilide], the Solubility is 25 mg/mL (≈ 92.5 mM) in data set [1] (POLYSORBATE 80:alcohol vehicle 33%T:66%E, in 33%T:66%E); 50 mg/mL (≈ 185 mM) in data set [1] (POLYSORBATE 80:alcohol vehicle 66%T:33%E, in 66%T:33%E); approximately 60 mg/mL in data set [4] (VPD (PBTE) parenteral vehicle, organic solvent or mixture, VPD (126 mg alcohol, 40 mg POLYSORBATE 80, 3 mg citric acid, 15 mg benzyl alcohol, 325 mg PEG MW300; also PBTE), read-out: solubility in VPD); 100 mg/mL in data set [4] (alcohol, organic solvent or mixture, read-out: soluble in alcohol at); “Insoluble” in data set [4] (vehicle 33%T:66%E (POLYSORBATE 80:alcohol v/v), 100 mg/ml); “Soluble” in data set [4] (vehicle 33%T:66%E, 25 mg/ml). In addition, the Solubility entry in data set [4] (vehicle 33%T:66%E, 50 mg/ml) is recorded as “Soluble”; in data set [4] (vehicle 50%T:50%E, 50 mg/ml), “Soluble”; in data set [4] (vehicle 50%T:50%E, 55 mg/ml), “Soluble”; in data set [4] (vehicle 50%T:50%E, 60 mg/ml), “Soluble”; in data set [4] (vehicle 50%T:50%E, 75 mg/ml) it was “Soluble”; in data set [4] (vehicle 50%T:50%E, 100 mg/ml) it was “Soluble”. Besides, the Solubility result is recorded as “Soluble” in data set [4] (vehicle 66%T:33%E, 50 mg/ml); “Insoluble” in data set [4] (vehicle 66%T:33%E, 100 mg/ml); “Soluble” in data set [4] (vehicle PBTE6C:WFI, 2.5 mg/ml); “Soluble” in data set [4] (vehicle alcohol, 100 mg/ml). Further, in data set [1] (VPD diluted 1:2 with pharmaceutically aqueous solution such as WFI), the “concentration in VPD that precipitates when diluted 1:2” value is given as “greater than 5 mg/ml”. Further, in data set [2], the stability in solution result is reported as “breakdown to N-(4-trifluoromethylphenyl)-2-cyano-3-hydroxycrotonamide”. Moreover, the remaining in solution entry is “precipitate started to occur” in data set [3] (20 mg/ml in 33%T:66%E with citric acid, 2-8° C. for 7 days); “remains in solution” in data set [3] (20 mg/ml in 33%T:66%E with either 4 or 6 mg/ml citric acid, 4° C.); “remains in solution” in data set [3] (20 mg/ml in 33%T:66%E with either 4 or 6 mg/ml citric acid, room temperature). In data set [3] (25 mg/ml in 33%T:66%E, diluted with aqueous solutions, room temperature (22° C. to 26° C.), over 3 days), the “remaining in solution with time” value is “falls out of solution”. The “solubility after addition of citric acid” value in data set [4] (33%:66%E with citric acid 1 to 20 mg/ml) is reported as “no longer soluble to the same extent”.
